In PubChem BioAssay (NCI):
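Tested at 5 concentrations; 48 h exposure; 96-well plates; endpoints linearly interpolated, else capped at highest concentration. At the GI50, growth is halved. The concentration for full growth arrest is given as TGI.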 Where a SMILES comes first, the peptide text is derived from it. [ ]: non-standard residue; d: D form. The star is where a group is joined. Cbz = O=C(OCc1ccccc1)*; Boc = CC(C)(C)OC(=O)*; Aib = CC(C)(N)C(=O)O; OBn = c1ccc(CO*)cc1; OtBu = CC(C)(C)O*; βAla = NCCC(=O)O

What was measured:
Assay in all cases: DTP human tumour cell line panel, 48 h
SK-MEL-28 melanoma = test system: SK-MEL-28 melanoma
HCC-2998 colon = test system: HCC-2998 colon
OVCAR-8 ovarian = test system: OVCAR-8 ovarian
SF-539 CNS = test system: SF-539 CNS
MDA-MB-435 = test system: MDA-MB-435
EKVX NSCLC = test system: EKVX NSCLC
UACC-257 melanoma = test system: UACC-257 melanoma
NCI-H460 lung = test system: NCI-H460 lung
CAKI-1 renal = test system: CAKI-1 renal
SR leukemia = test system: SR leukemia

Row | Compound | TGI (SK-MEL-28 melanoma) [µM] | TGI (HCC-2998 colon) [µM] | TGI (OVCAR-8 ovarian) [µM] | TGI (SF-539 CNS) [µM] | TGI (MDA-MB-435) [µM] | TGI (EKVX NSCLC) [µM] | TGI (UACC-257 melanoma) [µM] | TGI (NCI-H460 lung) [µM] | TGI (CAKI-1 renal) [µM] | TGI (SR leukemia) [µM] | GI50 (OVCAR-8 ovarian) [µM] | GI50 (CAKI-1 renal) [µM]
1 | COc1ccc(OC)c2cc(Cc3ccc(N(C)C)cc3)c(=O)c(Cc3ccc(N(C)C)cc3)cc12 | > 100 | > 100 | > 100 | > 100 | > 100 | > 100 | > 100 | > 100 | > 100 |  |  | 
2 | NC(CCCCNC(=O)OCc1ccccc1)C(=O)NC(CCCCNC(=O)OCc1ccccc1)C(=O)ON1C(=O)CCC1=O (centres undefined) | > 100 | > 100 | > 100 |  |  | > 100 | > 100 | > 100 |  | > 100 |  | 
3 | CC(C)(C)OC(=O)CC(NC(=O)OC(C)(C)C)C(=O)NC(CCCCNC(=O)OCc1ccccc1)C(=O)NC(C)(C)C(=O)NCCC(=O)OCc1ccccc1 (centres undefined) (Boc-D(OtBu)K(Cbz)[Aib][βAla]-OBn; configuration not given here) | > 100 |  | > 100 | > 100 | > 100 | > 100 |  | > 100 | > 100 | > 100 |  | 
4 | CSc1ncc2c(n1)-c1ccccc1OC2N1CCCC1 (centres undefined) |  |  | > 100 | > 100 | > 100 | > 100 | > 100 | > 100 | 83.4 | > 100 |  | 
5 | COc1ccc(CNc2nc(NCc3ccc(OC)cc3)nc(N3CCOCC3)n2)cc1 | > 100 |  | > 100 | 19.2 | 4.66 | > 100 | > 100 | > 100 | 6.9 | 4.92 |  | 
6 | CN(C(=O)c1ccc(Cl)s1)C(=S)N(C)C(=O)c1ccc(Cl)s1 | > 10 | > 10 | > 10 | > 10 |  | > 10 | > 10 | > 10 | > 10 | > 10 |  | 
7 | Cc1[nH]c(-c2ccccc2)c(-c2ccc(Cl)cc2)c1C(=O)ONC(=O)c1ccccc1 | 24.9 | 16.2 | 17 | 6.02 | 11.9 | 9.77 | 20.8 | 5.11 | 6.88 |  |  | 
8 | Cc1cc(S(=O)(=O)Nc2nc(N)nc(N3N=CCC3C)n2)c(S)cc1Cl (centres undefined) | > 10 | > 10 | > 10 | > 10 |  | > 10 | > 10 | > 10 | > 10 | > 10 |  | 
9 | CC(C)n1c(=O)n(-c2ccccc2)n(C(C)(C)C)c1=O | > 100 | > 100 | > 100 | > 100 |  | > 100 | > 100 | > 100 | > 100 | > 100 |  | 
10 | C=C1C[C@]23C[C@@]1(O)CC[C@H]2[C@@]12C=C[C@H](O)[C@@](C)(C(=O)O1)[C@H]2[C@@H]3C(=O)O | > 100 | > 100 |  | > 100 |  | > 100 | > 100 | > 100 | > 100 | > 100 |  | 
11 | O=C(/C=C/c1ccc([N+](=O)[O-])cc1)c1nc2ccccc2[nH]1 | > 100 |  | > 100 | > 73.6 | > 100 | > 100 | 31.4 | > 100 | > 100 | 11.3 |  | 
12 | CC[N+](C)(CC)CCN1C(=O)c2ccccc2S1(=O)=O | > 100 |  | > 100 | > 100 | > 100 | > 100 | > 100 | > 100 | > 100 |  |  | 
13 | CCCCN(c1ccccc1)c1ncnc2c1cnn2C | > 100 | > 100 | > 100 |  | > 100 | > 100 | 95.8 | > 100 | > 100 |  |  | 
14 | O=C1[C@@H]2Cc3c([nH]c4ccccc34)C(C3CCCCC3)N2C(=O)[C@@H]2CCCN12 (some centres undefined) | > 100 |  | > 100 |  | > 100 | > 100 | 80.7 |  | 80.8 | 46.8 |  | 
15 | NC(=O)CC(Nc1ncc2c(n1)-c1ccccc1OC2)C(=O)O (centres undefined) | > 100 |  | > 100 | > 100 | > 100 | > 100 | > 100 | > 100 | > 100 | > 100 |  | 
16 | O=C(NCCNCCO)N/N=C/c1ccc(Cl)cc1 | > 100 | > 100 | > 100 | > 100 | > 100 |  | > 100 | > 100 | > 100 | > 100 |  | 
17 | COc1c/c(=C2/C=c3ccccc3=N2)[nH]/c1=C/c1[nH]c(C)cc1C |  |  | > 100 |  |  |  |  |  | 1.2 |  | 0.0448 | 0.0346
